This note sets out measurements from US9718823B2, “2, 6-Di-nitrogen-containing substituted purine derivative, and preparation method, pharmaceutical composition and use thereof” (Zhejiang Medicine Co., Ltd. Xinchang Pharmaceutical Factory, priority 2013, dated 2017).

Where a name gives a salt, the structure may show the parent alone.

Assay [1] deals with T1, PI3 K γ (Homo sapiens, UniProt P48736).
T1 construct: purchased Biology, Medicilon
Description: Inhibitory activity to PI3K γ, PI 3-Kinase (human) HTRF Assay kit. In kind it is biochemical. To be noted: for Inhibition rate % to PI3 K γ: dihydrate di-methanesulfonate. Summed up: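 HTRF kinase assay with PI3Kγ at 80 ng/well, 10 μM PIP2 and 100 μM ATP (both final) in DTT-containing reaction buffer, 1% DMSO. Preliminary screen at 10 μM and 1 μM compound, followed by IC50 determination for selected compounds.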
(In general: Time-resolved FRET reads energy transfer from a long-lived donor to a nearby acceptor.)

The test system of assay [2] is PC-3 cell Akt (Ser473) phosphorylation. Description: Inhibition of phosphorylation level of PC-3 cell Akt (Ser473), Cisbio HTRF phospho Akt (Ser473) cell-based assay. Details: species or system human. To be noted: hEGF 100 ng/ml stimulation, 1st and 2nd test where printed. As for the experimental part:
The inhibitory activity of the compounds of present invention to the phosphorylation level of PC-3 cell Akt (Ser473) is studied by using Cisbio HTRF phospho Akt (Ser473) cell-based assay test kit.
Cell strain: PC-3 prostate cancer cells line (cell bank of Chinese Academy of Sciences) is cultured by using culture medium (F12K+10% FBS).
hEGF is prepared as stock solution of 100 ug/ml with 10 mM acetic acid, and the stock solution is diluted to 200 ng/ml with serum-free medium, added 50 ul to each well to be stimulated.
b) Preparation of Complete Lysate • 4×Lysis Buffer is diluted 4 times with ddH2O to prepare 1×Lysis Buffer. • 100×Blocking Reagent is diluted 100 times with 1×Lysis Buffer.
c) Preparation of Detection Liquid • 20×Anti-Phospho-Akt is diluted 20 times with Detection Buffer. • 20×Anti-Akt is diluted 20 times with Detection Buffer.
The compounds are diluted with DMSO, and the working concentration of compounds is 100 times of detection concentration.
Cells in logarithmic growth phase are collected, counted, and resuspended with complete culture medium;
The cell concentration is adjusted to appropriate concentration, and cell suspension is inoculated into 96 well plates at 50 μl per well;
Cells are incubated for more than 4 h in the 5% CO2 incubator at temperature of 37° C., relative humidity of 100%;
Cell plate is removed from the incubator. The cell suspension is aspirated gently, and 50 ul serum-free F12K medium is quickly added, then the cell plate is placed into the incubator to culture overnight.
The compounds are diluted in a linear gradient with DMSO.
0.5 ul compounds is added into the test well, mixed on oscillators, and incubated at room temperature for 2 hours.
Proportioned hEGF solution is added to test well at 50 μl per well, and the final concentration is 100 ng/ml. serum-free medium is added into The negative control well at 50 μl per well.
The solution is mixed on oscillator and incubated at room temperature for 2 hours.
The liquid in 96 well plates is aspirated by multichannel pipette or the supernatant is discarded gently. The proportioned complete lysate is added quickly at 50 μl per well.
The solution is mixed on oscillator and lysed at room temperature for 30 min.
16 μl cell lysate is transferred from the 96 well plates to white low volume 384 well plates, and the proportioned two pairs of detection antibody are added. The solution is mixed on oscillator, and incubated at room temperature for 4 hours to detect the readings.

Assay [3] deals with T2, PDGFR β enzyme (Homo sapiens, UniProt P09619).
T2 construct: purchased Invitrogen P3082
Kind of assay: Inhibitory activity to PDGFR β enzyme, HTRF kinEASE TK kit. In kind it is biochemical. Summed up:
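Recombinant human PDGFRβ phosphorylating TK-substrate in kinase buffer containing MgCl2, MnCl2, DTT and SEB, with ATP. Phosphorylation detected by HTRF using TK-Ab-Cryptate and Sa-XL665.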

T1 sequence (P48736 whole entry): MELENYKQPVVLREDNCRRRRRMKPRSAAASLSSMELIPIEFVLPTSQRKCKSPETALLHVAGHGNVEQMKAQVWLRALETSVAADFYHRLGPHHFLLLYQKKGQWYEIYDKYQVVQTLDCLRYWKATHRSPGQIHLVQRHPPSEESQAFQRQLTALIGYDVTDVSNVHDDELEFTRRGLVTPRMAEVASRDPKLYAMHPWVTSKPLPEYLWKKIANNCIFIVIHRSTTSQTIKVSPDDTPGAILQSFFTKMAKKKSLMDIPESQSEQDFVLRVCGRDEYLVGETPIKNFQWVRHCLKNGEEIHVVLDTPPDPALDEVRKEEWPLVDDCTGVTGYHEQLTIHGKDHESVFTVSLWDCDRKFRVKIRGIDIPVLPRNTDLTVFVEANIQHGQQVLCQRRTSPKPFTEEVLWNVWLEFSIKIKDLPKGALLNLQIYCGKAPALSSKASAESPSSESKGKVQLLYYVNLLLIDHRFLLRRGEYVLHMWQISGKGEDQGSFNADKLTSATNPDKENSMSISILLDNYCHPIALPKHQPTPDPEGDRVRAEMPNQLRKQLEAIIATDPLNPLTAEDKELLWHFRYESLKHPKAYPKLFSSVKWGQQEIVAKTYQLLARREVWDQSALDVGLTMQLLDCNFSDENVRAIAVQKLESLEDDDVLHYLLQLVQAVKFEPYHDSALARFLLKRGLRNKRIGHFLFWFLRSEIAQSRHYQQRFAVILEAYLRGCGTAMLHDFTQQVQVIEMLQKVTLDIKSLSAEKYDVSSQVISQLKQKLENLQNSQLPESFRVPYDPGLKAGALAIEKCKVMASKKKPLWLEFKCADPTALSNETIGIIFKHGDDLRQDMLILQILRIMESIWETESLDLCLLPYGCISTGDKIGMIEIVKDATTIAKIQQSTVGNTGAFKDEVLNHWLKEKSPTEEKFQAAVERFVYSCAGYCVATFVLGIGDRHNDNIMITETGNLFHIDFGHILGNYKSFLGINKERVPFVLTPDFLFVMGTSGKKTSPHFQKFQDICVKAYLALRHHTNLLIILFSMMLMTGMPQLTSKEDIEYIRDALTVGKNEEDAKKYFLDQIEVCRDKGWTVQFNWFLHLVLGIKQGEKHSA
T2 sequence (P09619 33-1106): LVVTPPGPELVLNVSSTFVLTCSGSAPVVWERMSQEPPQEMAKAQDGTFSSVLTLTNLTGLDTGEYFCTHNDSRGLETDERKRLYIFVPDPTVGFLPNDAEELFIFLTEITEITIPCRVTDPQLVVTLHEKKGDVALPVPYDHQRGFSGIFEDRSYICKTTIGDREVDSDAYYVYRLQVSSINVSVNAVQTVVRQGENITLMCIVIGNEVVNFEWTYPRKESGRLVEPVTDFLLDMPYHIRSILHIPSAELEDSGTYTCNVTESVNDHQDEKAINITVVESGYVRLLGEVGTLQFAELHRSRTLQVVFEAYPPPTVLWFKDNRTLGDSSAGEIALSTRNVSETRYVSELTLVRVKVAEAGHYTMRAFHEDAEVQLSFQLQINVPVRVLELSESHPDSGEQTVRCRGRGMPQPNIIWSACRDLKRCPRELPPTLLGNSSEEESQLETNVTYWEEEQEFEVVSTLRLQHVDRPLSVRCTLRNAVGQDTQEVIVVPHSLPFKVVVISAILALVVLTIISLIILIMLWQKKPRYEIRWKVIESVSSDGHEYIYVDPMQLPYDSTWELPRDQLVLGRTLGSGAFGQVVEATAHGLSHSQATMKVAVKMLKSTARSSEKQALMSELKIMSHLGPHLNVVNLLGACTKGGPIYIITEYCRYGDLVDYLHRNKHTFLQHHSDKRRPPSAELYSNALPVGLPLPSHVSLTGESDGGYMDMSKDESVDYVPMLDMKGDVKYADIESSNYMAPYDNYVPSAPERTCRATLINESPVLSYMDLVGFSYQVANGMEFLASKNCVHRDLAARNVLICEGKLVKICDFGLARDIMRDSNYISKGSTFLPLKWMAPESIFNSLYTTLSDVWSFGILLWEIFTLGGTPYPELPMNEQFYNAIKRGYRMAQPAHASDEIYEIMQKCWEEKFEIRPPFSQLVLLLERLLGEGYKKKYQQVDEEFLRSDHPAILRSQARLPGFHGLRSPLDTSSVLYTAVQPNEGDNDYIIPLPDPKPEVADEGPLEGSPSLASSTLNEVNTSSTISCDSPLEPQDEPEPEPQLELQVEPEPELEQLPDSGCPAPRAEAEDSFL

In the case of `c1ccc(-c2ccnc3ccc(Nc4nc(NC5CC5)c5nc[nH]c5n4)cc23)cc1` [MED1007-91, N6-cyclopropyl-N2-(4-phenylquinoline-6-yl)-9H-purine-2,6-diammonium salt dihydrate di-methanesulfonate], the “Inhibition rate % to PI3 K γ” value is reported as 29.82% in assay [1] (1 μM) and 81.29% in assay [1] (10 μM). Also, the IC50 (usually the concentration that inhibits the measured activity by half) in assay [2] (PC-3 cells, dihydrate di-methanesulfonate) is 74 nM. In addition, in assay [3] (1 μM, dihydrate di-methanesulfonate), the “Inhibition rate % (PDGFR β)” value was −10.96%. For the same molecule, the inhibition (commonly the drop in the measured response relative to a control, in per cent) at 10 µM in assay [3] (10 μM, read-out: Inhibition rate % (PDGFR β)) was 13.8%.
`COC[C@H]1OC(=O)c2coc3c2[C@@]1(C)C1=C(C3=O)[C@@H]2CCC(=O)[C@@]2(C)C[C@H]1OC(C)=O` [Wortmannin, reference compound]: in assay [1] (1 μM, read-out: Inhibition rate % to PI3 K γ), the inhibition at 1 µM came to 105%. Moreover, in assay [1] (10 μM, read-out: Inhibition rate % to PI3 K γ), the inhibition at 10 µM was 101%. Also, half-maximal inhibition in assay [2] (Homo sapiens, PC-3, PC-3 cells) (IC50) was put at 7.41 nM.
